Experimental data as given in patent publication US9096536B2, “Asymmetrically substituted anthrapyridazone derivatives as cytostatics” (BS-154 S.P. ZO.O., priority 2011, dated 2015).

Experiments:
[1] = tested on: human prostate cancer cell line DU145; assay: Cytostatic activity in vitro, prostate cancer DU145; format: cell-based; conditions: 72 h continuous exposure
Excerpt: (§1) Table 5 presents activity in vitro of anthrapiridazone derivatives towards three cell lines of prostate cancer, naturally multidrug resistant, in comparison with references doxorubicin, mitoxantrone and taxol.

HL60/DX = assay: Cytostatic activity in vitro, doxorubicin-induced resistant subline (MRP); format: cell-based, human; conditions: for IC50: 72 h continuous exposure; for RI resistance index HL60/DX: IC50(resistant cells)/IC50(sensitive cells), HL60/DX vs HL60, 72 h
Excerpt: (§2) Tables 3 and 4 show cytostatic activity in vitro of 2,6-disubstituted and 2- or 6-monosubstituted (Tab.3), and of 2,5-disubstituted-(Tab.-4) tetracyclic anthrapyridazone derivatives using leukemia cell line HL-60 and the resistant cell sublines with resistance induced by vincristine (MDR-1) or doxorubicin (MRP). Activity of compounds is differentiated depending on their structure, but in all cases resistance indexes are more advantageous in comparison with reference compounds: doxorubicin and mitoxantrone.

[2] = tested on: human prostate cancer cell line LNCaP; assay: Cytostatic activity in vitro, prostate cancer LNCaP; format: cell-based; conditions: 72 h continuous exposure
Excerpt: as §1

HL60/VINC = assay: Cytostatic activity in vitro, vincristine-induced resistant subline (MDR-1); format: cell-based, human; conditions: for IC50: 72 h continuous exposure; for RI resistance index HL60/VINC: IC50(resistant cells)/IC50(sensitive cells), HL60/VINC vs HL60, 72 h
Excerpt: as §2

[3] = tested on: human prostate cancer cell line PC3; assay: Cytostatic activity in vitro, prostate cancer PC3; format: cell-based; conditions: 72 h continuous exposure
Excerpt: as §1

CT-DNA = assay: Interaction with isolated CT-DNA, fluorescence competition with ethidium bromide; format: binding; conditions: for IC50: 50% decrease in fluorescence intensity of DNA-bromide ethydine complex; for Kapp relative constant of DNA-compound bonding: Kapp = (1.26/C50) × KEtBr, KEtBr = 10^7M
Excerpt: It could be supposed that this property explains cytostatic activity of compounds. In Table 9 there are presented quantitative data on the affinity to DNA of tested compounds using the fluorescence method and competitive affinity to DNA of bromine ethydine and tested compounds.

[4] = tested on: human promyelocytic leukemia cell line HL-60; assay: Cytostatic activity in vitro, HL-60 sensitive line; format: cell-based; conditions: 50% inhibition of cell growth after 72 h continuous exposure; read-out: HL60 IC50
Excerpt: as §2

Compound	IC50 [1] [nM]	IC50 (HL60/DX) [nM]	RI resistance index HL60/DX (HL60/DX)	IC50 [2] [nM]	IC50 (HL60/VINC) [nM]	RI resistance index HL60/VINC (HL60/VINC)	IC50 [3] [nM]	IC50 (CT-DNA) [nM]	Kapp relative constant of DNA-compound bonding (CT-DNA) [M⁻¹]	IC50 [4] [nM]
CC(=O)NCCCNc1ccc2c(=O)n(CCN(C)C)nc3c2c1C(=O)c1ccccc1-3 [PDZ-13, 2-[2-(Dimethylamino)ethyl]-6-[(3-acetylaminopropyl)amino]-2,7-dihydro-3H-dibenzo [de,h]cynnoline-3,7-dione]	36.7 ± 7.4	3240 ± 558	249.2	50.7 ± 10.2	421 ± 24	32.4	106 ± 5.7	1840 ± 160	6.8e+06	13 ± 1
CC(=O)Nc1ccc2c(=O)n(CCN(C)C)nc3c2c1C(=O)c1ccccc1-3 [PDZ-14, 2-[2-(Dimethylamino)ethyl]-6-(acetylamino)-2,7-dihydro-3H-dibenzo[de,h]cynnoline-3,7-dione]	32.8 ± 1.4	870 ± 173	31.1	44.8 ± 5.6	79 ± 7	2.8	85.5 ± 10.1	990 ± 10	1.27e+07	28 ± 6
CN(C)CCn1nc2c3c(cccc3c1=O)C(=O)c1ccccc1-2 [PDZ-15, 2-[2-(Dimethylamino)ethyl]-2,7-dihydro-3H-dibenzo[de,h]cynnoline-3,7-dione]	462 ± 52	3060 ± 992	14.4	323 ± 34	489 ± 68	2.3	963 ± 171	3080 ± 190	4.1e+06	213 ± 64
O=C1c2ccccc2-c2nn(CCN3CCCCC3)c(=O)c3ccc(NCCNCc4ccccc4)c1c23 [PDZ-17, 2-[2-(Piperidinamino)ethyl]-6-(2-benzylaminoethylamino)-2,7-dihydro-3H-dibenzo [de,h]cynnoline-3,7-dione]	344 ± 43	2870 ± 447	29.3	166 ± 40	477 ± 39	4.9	606 ± 38	460 ± 80	2.72e+07	98 ± 19
CCN(CC)CCNc1ccc2c(=O)[nH]nc3c2c1C(=O)c1ccccc1-3 [PDZ-18, 6-(2-Diethylaminoethyloamino)-2,7-dihydro-3H-dibenzo[de,h]cynnoline-3,7-dione]	418 ± 58	3500 ± 752	30.4	465 ± 121	597 ± 16	5.2	974 ± 159	1960 ± 120	6.4e+06	115 ± 3
CN(C)CCn1nc2c3c(c(NCCCN)ccc3c1=O)C(=O)c1ccccc1-2 [PDZ-20, 2-[2-(Dimethylamino)ethyl]-6-[(3-aminopropyl)amino]-2,7-dihydro-3H-dibenzo [de,h]cynnoline-3,7-dione]	47.3 ± 11.5	2600 ± 436	302.2	31.4 ± 4.6	82.2 ± 6.1	9.6	245 ± 36	220 ± 60	5.79e+07	8.6 ± 0.9
